Laboratory results published in patent publication US6281342A, “Pradimicin compounds” (Bristol-Myers Squibb Company, priority 1994, dated 2001).
Converted amounts (≈) assume the structure as drawn. Read-outs that look alike come from different tables or passages of the source.

How the values were obtained:
[1] = tested on: Aspergillus fumigatus IAM 2034; test: MIC, two-fold agar dilution, A. fumigatus IAM 2034; assay type: cell-based; conditions: IAM2034
Experimental: (§1) Minimum inhibitory concentrations (MICs) of nine 4'-N-substituted pradimicin derivatives were determined by two-fold agar dilution method on phosphate-buffered yeast morphology agar (YMA, pH 7.0, Difco Laboratories). A 5-μl of fungal cell suspension containing 2×10^6 cells/ml (2×10^7 cells/ml for Trichophyton mentagrophytes) were spotted on the surface of the agar plates containing test compound. MICs were recorded after 40-hour incubation at 28° C. except for T. mentagrophytes, which required 60-hour incubation to produce visually evaluable growth on the drug-free control plates and were defined as the lowest antibiotic concentrations showing no growth or less than five discrete colonies per spot.
(§2) Medium: yeast morphology agar + 1/15 M phosphate buffer (pH 7.0)
(§3) Incubation conditions: 28° C., 40 hours (C. albicans ATCC 38247 & T.
(§4) Medium: Yeast morphology agar + 1/15 phosphate buffer (pH 7.0).

[2] = tested on: Candida tropicalis 85-8; test: MIC, two-fold agar dilution, C. tropicalis 85-8; assay type: cell-based; conditions: 858, YMA pH 7.0, 28° C., 40 hours
Experimental: as §1, §2, §3, §4

[3] = tested on: Candida albicans ATCC 32354; test: MIC, two-fold agar dilution, C. albicans ATCC 32354; assay type: cell-based; conditions: ATCC32354, YMA pH 7.0, 28° C., 40 hours
Experimental: as §1, §2, §3, §4

[4] = tested on: Trichophyton mentagrophytes #4329; test: MIC, two-fold agar dilution, T. mentagrophytes #4329; assay type: cell-based
Experimental: as §1, §2, §3
(§5) mentagrophytes #4329: 28° C., 60 hours).
as §4

[5] = tested on: Cryptococcus neoformans D49; test: MIC, two-fold agar dilution, C. neoformans D49; assay type: cell-based; conditions: YMA pH 7.0, 28° C., 40 hours
Experimental: as §1, §2, §3, §4

[6] = tested on: Candida albicans A9540; test: MIC, two-fold agar dilution, C. albicans A9540; assay type: cell-based
Experimental: as §1, §2, §3, §4

[7] = tested on: Candida albicans IAM 4888; test: MIC, two-fold agar dilution, C. albicans IAM 4888; assay type: cell-based; conditions: IAM4888, YMA pH 7.0, 28° C., 40 hours
Experimental: as §1, §2, §3, §4

[8] = tested on: Candida tropicalis IFO 10241; test: MIC, two-fold agar dilution, C. tropicalis IFO 10241; assay type: cell-based; conditions: IFO10241, YMA pH 7.0, 28° C., 40 hours
Experimental: as §1, §2, §3, §4

[9] = tested on: Cryptococcus neoformans IAM 4514; test: MIC, two-fold agar dilution, C. neoformans IAM 4514; assay type: cell-based; conditions: IAM4514
Experimental: as §1, §2, §3, §4

[10] = tested on: Saccharomyces cerevisiae ATCC 9763; test: MIC, two-fold agar dilution, S. cerevisiae ATCC 9763; assay type: cell-based; conditions: ATCC9763, YMA pH 7.0, 28° C., 40 hours
Experimental: as §1, §2, §3, §4

[11] = tested on: Candida albicans 83-2-14; test: MIC, two-fold agar dilution, C. albicans 83-2-14; assay type: cell-based; conditions: 83214, YMA pH 7.0, 28° C., 40 hours
Experimental: as §1, §2, §3, §4

[12] = tested on: Candida albicans A9540; test: animal or person; assay type: in vivo, male ICR mice infected with Candida albicans A9540
Experimental: The in vivo therapeutic efficacies of seven 4'-N-substituted pradimicin derivatives, KHM-1, KHM-2, KHM-3, KHM-4, KHM-5, KHM-6 and KHM-7 were evaluated in the mouse infected with Candida albicans A9540 and Aspergillus fumigatusIAM 2034. Groups of five specific-pathogen-free male ICR mice weighing 20-25 g at each dose level were intravenously infected with approximately 10 times the 50% lethal dose of C. albicans A9540 (1×10^6 cells/mouse) or A. fumigatus IAM 2034 (1×10^7 cells/mouse). Immediately after the fungal infection, test compounds dissolved with 10% DMSO in distilled water were intravenously given to the mouse at the dosed volume of 0.1 ml/10 g of body weight. […] Untreated control animals died 7 to 13 days post-infection.

[13] = tested on: Candida albicans ATCC 38247; test: MIC, two-fold agar dilution, C. albicans ATCC 38247; assay type: cell-based; conditions: ATCC38247, YMA pH 7.0, 28° C., 60 hours (table footnote)
Experimental: as §1, §2, §3, §5, §4

[14] = Aspergillus fumigatus IAM 2034, YMA pH 7.0, 28° C., 40 hours, read-out: MIC
[15] = Table 3, Aspergillus fumigatus IAM 2034, YMA, read-out: MIC Af-3
[16] = Table 3, Trichophyton mentagrophytes #4329, YMA, read-out: MIC TM-4
[17] = Trichophyton mentagrophytes #4329, YMA pH 7.0, 28° C., 60 hours, read-out: MIC
[18] = Candida albicans A9540, YMA pH 7.0, 28° C., 40 hours, read-out: MIC
[19] = Table 3, Candida albicans A9540, YMA, read-out: MIC Ca-4
[20] = Cryptococcus neoformans IAM 4514, YMA pH 7.0, 28° C., 40 hours, read-out: MIC
[21] = Table 3, Cryptococcus neoformans IAM 4514, YMA, read-out: MIC Cn-2

| SMILES | MIC [1, 14] [µg/mL] | MIC [1, 15] [µg/mL] | MIC [2] [µg/mL] | MIC [3] [µg/mL] | MIC [4, 16] [µg/mL] | MIC [4, 17] [µg/mL] | MIC [5] [µg/mL] | MIC [6, 18] [µg/mL] | MIC [6, 19] [µg/mL] | MIC [7] [µg/mL] | MIC [8] [µg/mL] | MIC [9, 20] [µg/mL] | MIC [9, 21] [µg/mL] | MIC [10] [µg/mL] | MIC [11] [µg/mL] | also measured |
| --- | --- | --- | --- | --- | --- | --- | --- | --- | --- | --- | --- | --- | --- | --- | --- | --- |
| COc1cc(O)c2c(c1)C(=O)c1c(cc3c(c1O)-c1c(cc(C)c(C(=O)N[C@H](C)C(=O)O)c1O)[C@H](O[C@@H]1O[C@H](C)[C@H](NC(=N)N)[C@H](O[C@@H]4OC[C@@H](O)[C@H](O)[C@H]4O)[C@H]1O)[C@H]3O)C2=O [KHM-8, 4'-Guanidinopradimicin C] | 3.1 (≈ 3.57 µM) | 3.1 (≈ 3.57 µM) | > 100 | 12.5 (≈ 14.4 µM) | 3.1 (≈ 3.57 µM) | 3.1 (≈ 3.57 µM) | 6.3 (≈ 7.25 µM) | 12.5 (≈ 14.4 µM) | 12.5 (≈ 14.4 µM) | 12.5 (≈ 14.4 µM) | > 100 | 6.3 (≈ 7.25 µM) | 6.3 (≈ 7.25 µM) | 25 (≈ 28.8 µM) | > 100 | – |
| COc1cc(O)c2c(c1)C(=O)c1c(cc3c(c1O)-c1c(cc(C)c(C(=O)N[C@H](C)C(=O)O)c1O)[C@H](O[C@@H]1O[C@H](C)[C@H](NC=N)[C@H](O[C@@H]4OC[C@@H](O)[C@H](O)[C@H]4O)[C@H]1O)[C@H]3O)C2=O [KHM-9, 4'-Amidinopradimicin C] | 1.6 (≈ 1.87 µM) | 1.6 (≈ 1.87 µM) | 50 (≈ 58.6 µM) | 6.3 (≈ 7.38 µM) | 3.1 (≈ 3.63 µM) | 3.1 (≈ 3.63 µM) | 12.5 (≈ 14.6 µM) | 12.5 (≈ 14.6 µM) | 12.5 (≈ 14.6 µM) | 6.3 (≈ 7.38 µM) | > 100 | 3.1 (≈ 3.63 µM) | 3.1 (≈ 3.63 µM) | 1.6 (≈ 1.87 µM) | 12.5 (≈ 14.6 µM) | – |
| COc1cc(O)c2c(c1)C(=O)c1c(cc3c(c1O)-c1c(cc(C)c(C(=O)N[C@H](C)C(=O)O)c1O)[C@H](O[C@@H]1O[C@H](C)[C@H](N)[C@H](O[C@@H]4OC[C@@H](O)[C@H](O)[C@H]4O)[C@H]1O)[C@H]3O)C2=O [Pradimicin C] | 3.1 (≈ 3.75 µM) | 3.1 (≈ 3.75 µM) | 100 (≈ 121 µM) | 6.3 (≈ 7.62 µM) | 3.1 (≈ 3.75 µM) | 3.1 (≈ 3.75 µM) | 0.8 (≈ 0.968 µM) | 25 (≈ 30.2 µM) | 25 (≈ 30.2 µM) | – | 100 (≈ 121 µM) | 0.8 (≈ 0.968 µM) | 0.8 (≈ 0.968 µM) | 6.3 (≈ 7.62 µM) | 50 (≈ 60.5 µM) | ED50 ([12]; 480 h, Table 3, Candida albicans A9540, iv, read-out: PD50 (mice) Ca-4): 14 mg/kg; responders at 6.3 mg/kg ([12]; Candida albicans, A9540, 480 h, C. albicans, mice, 6.3 mg/kg iv, 20th day post-infection, read-out: S/T (No. of survivors/tested) (converted)): 40%; responders at 12.5 mg/kg ([12]; Candida albicans, A9540, 480 h, C. albicans, mice, 12.5 mg/kg iv, 20th day post-infection, read-out: S/T (No. of survivors/tested) (converted)): 40%; responders at 25 mg/kg ([12]; Candida albicans, A9540, 480 h, C. albicans, mice, 25 mg/kg iv, 20th day post-infection, read-out: S/T (No. of survivors/tested) (converted)): 100%; responders at 50 mg/kg ([12]; Candida albicans, A9540, 480 h, C. albicans, mice, 50 mg/kg iv, 20th day post-infection, read-out: S/T (No. of survivors/tested) (converted)): 0%; ED50 ([12]; Candida albicans, A9540, 480 h, Table 2, C. albicans, mice, iv, 95% confidence limits in parentheses, read-out: PD50 (50% protection dose)): 13 mg/kg; MIC [13]: 3.1 µg/mL (≈ 3.75 µM) |
